In US10676476B2, “Small-molecule HSP90 inhibitors” (Sloan-Kettering Institute for Cancer Research, priority 2005, dated 2020):

Legend:
[1] = tested on: Hsp90 complexes found in normal heart tissue; test: Hsp90 competition assay, heart homogenate; assay type: binding, mouse; conditions: ratio of EC50 values
Procedure: (§4) When using cell lysates instead of recombinant protein, the assay measures binding to average. Hsp90 population found in cell specific complexes.
(§5) Hsp90 Competition Assay.Fluorescence polarization measurements were performed on an ANALYST® AD instrument (Molecular Devices, Sunnyvale, Calif.). […] The assay buffer (HFB) contained 20 mM HEPES (K) pH 7.3, 50 mM KCl, 5 mM MgCl2, 20 mM Na2MoO4, 0.01% NP40. Before each use, 0.1 mg/mL bovine gamma globulin (BGG) (Panvera Corporation, Madison, Wis.) and 2 mM DTT (Fisher Biotech, Fair Lawn, N.J.) were freshly added. […] Cell lysates were prepared rupturing cellular membranes by freezing at −70° C. and dissolving the cellular extract in HFB with added protease and phosphotase inhibitors. Organs were harvested from a healthy mouse and homogenized in HFB. Saturation curves were recorded in which GM-BODIPY (5 nM) was treated with increasing amounts of cellular lysates.

[2] = tested on: MRC5 normal lung fibroblasts; test: Selectivity SKBr3 versus MRC5 normal cells; assay type: cell-based
[3] = tested on: cancer cells; test: Potency against cancer cells; assay type: cell-based
Procedure: (§1) Growth over 96 h was assessed.

[4] = tested on: MDA-MB-468 cells; test: Anti-mitotic assay (Tg-3 microtiter immunoassay); assay type: cell-based, human; conditions: MDA-MB-468 (Rb-defective) cells, 24 h
Procedure: Anti-Mitotic Assay. Black, clear-bottom microtiter 96-well plates (Corning Costar#3603) were used to accommodate experimental cultures. MDA-MB-468 cells were seeded in each well at 8,000 cells per well in growth medium (100 μL), and allowed to attach overnight at 37° C. and 5% CO2. Growth medium (100 μL) with drug or vehicle (DMSO) was gently added to the wells, and the plates were incubated at 37° C. and 5% CO2 for 24 h. Wells were washed with ice-cold TBST (2×200 μL). A house vacuum source attached to an eight-channel aspirator was used to remove the liquid from the 96-well plates. Ice-cold methanol (100 μL) was added to each well, and the plate was placed at 4° C. for 5 min. Methanol was removed by suction and plates were washed with ice-cold TBST (2×200 μL). Plates were further incubated with SuperBlock® blocking buffer (Pierce #37535) (200 μL) for 2 h at RT. The Tg-3 antibody (gift of Dr. Davies, Albert Einstein College of Medicine) diluted 1:200 in SuperBlock® was placed in each well (100 μL) except the control column that was treated with control antibody (Mouse IgM, NeoMarkers, NC-1030-P). After 72 h, wells were washed with ice-cold TBST (2×200 μL). […] Un-reacted antibody was removed by washing the plates with ice-cold TBST (3×200 μL) for 5 min on a shaker. The ECL™ Western Blotting Detection Reagents 1 and 2 in 1:1 mix (100 μL) was placed in each well and the plates were read immediately in an Analyst AD plate reader (Molecular Devices). Luminescence readings were imported into SOFTmax PROR 4.3.1. Anti-mitotic activity was defined as a concentration dependent increase in luminescence readings in compound-treated wells as compared to DMSO only treated wells.

[5] = tested on: SKBr3 breast cancer cells; test: Growth inhibition, sulforhodamine B assay; assay type: cell-based, human; conditions: for IC50: growth inhibition, 72 h, average of 3 measurements; for Inhibition of growth in SKBr3 cells: result in words
Procedure: (§2) Cell Culture. The human breast cancer cell lines SKBr3 and MDA-MB-468 were a gift from Dr. Neal Rosen (MSKCC). Cells were maintained in 1:1 mixture of DME:F12 supplemented with 2 mM glutamine, 50 units/mL penicillin, 50 […] and 10% heat inactivated fetal bovine serum (Gemini Bioproducts#100-10b) and incubated at 37° C., 5% CO2. Growth assays. Growth inhibition studies were performed using the sulforhodamine B assay as previously described.^29 In summary, experimental cultures were plated in microtiter plates (Nunc#167008). One column of wells was left without cells to serve as the blank control. Cells were allowed to attach overnight. The following day, growth medium having either drug or DMSO at twice the desired initial concentration was added to the plate in triplicate and was serially diluted at a 1:1 ratio in the microtiter plate. After 72 h of growth, the cell number in treated versus control wells was estimated after treatment with 50% trichloroacetic acid and staining with 0.4% sulforhodamine B in 1% acetic acid. […] Normal human renal proximal tubular epithelial (RPTEC) cells were purchased pre-seeded in 96-well plates (Clonetics, CC-3190). Upon receipt, cells were placed in a humidified incubator at 37° C., 5% CO2 and allowed to equilibrate for 3 h. Media was removed by suction and replaced with fresh media provided by the manufacturer. Cells were then treated with either drugs or DMSO for 72 h and the IC50 values were determined as described above.

[6] = tested on: Her2 in SKBr3 cells; test: Her2 assay (microtiter immunoassay of Her2 degradation); assay type: cell-based, human; conditions: for IC50: Her2 degradation, SKBr3 cells, 24 h, average of 3 measurements; for Her2 degradation in SKBr3 cells: result in words
Procedure: Her2 Assay. SKBr3 cells were plated in black, clear-bottom microtiter plates (Corning#3603) at 3,000 cells/well in growth medium (100 μl) and allowed to attach for 24 h at 37° C. and 5% CO2. Growth medium (100 μl) with drug or vehicle (DMSO) was carefully added to the wells, and the plates were placed at 37° C. and 5% CO2. Following 24 h incubation with drugs, wells were washed with ice-cold Tris buffer saline (TBS) containing 0.1% Tween 20 (TBST) (200 μl). A house vacuum source attached to an eight-channel aspirator was used to remove the liquid from the plates. Further, methanol (100 μl at −20° C.) was added to each well, and the plate was placed at 4° C. for 10 min. Methanol was removed by washing with TBST (2×200 μl). After further incubation at RT for 2 h with SUPERBLOCK® R (Pierce 37535) (200 μl), anti-Her-2 (c-erbB-2) antibody (Zymed Laboratories#28-004) (100 μl, 1:200 in SUPERBLOCK® R) was placed in each well. The plate was incubated overnight at 4° C. For control wells, 1:200 dilution of a normal rabbit IgG (Santa Cruz#SC-2027) in SUPERBLOCK® R was used. Each well was washed with TBST (2×200 μl) and incubated at RT for 2 h with an anti-rabbit HRP-linked antibody (Sigma, A-0545) (100 μl, 1:2000 in SuperBlockR). Unreacted antibody was removed by washing with TBST (3×200 μl), and the ECL™ Western blotting reagent (Amersham #RPN2106) (100 μL) was added. The plate was immediately read in an Analyst AD plate reader (Molecular Devices). Each well was scanned for 0.1 s. Readings from wells containing only control IgG and the corresponding HRP-linked secondary antibody were set as background and deducted from all measured values.

[7] = tested on: Hsp90 complexes found in normal lung tissue; test: Hsp90 competition assay, lung homogenate; assay type: binding, mouse; conditions: ratio of EC50 values
Procedure: as §4, §5

[8] = tested on: Hsp90 from SKBr3 cells; test: Hsp90 competition assay, SKBr3 cell lysate; assay type: binding, human
Procedure: as §4, §5

[9] = tested on: renal proximal tubular epithelial cells (RPTEC); test: Cytotoxicity against normal RPTEC cells; assay type: cell-based, human; conditions: ratio of growth IC50 values
Procedure: as §2, with “Cells were then treated with either drugs or DMSO for 72 h and the IC50 values were determined as described above.” left out

[10] = tested on: small cell lung cancer cell lines; test: Apoptosis and cell death in SCLC cell lines; assay type: cell-based; conditions: each of the SCLC cell lines
[11] = tested on: Hsp90 complexes found in normal brain tissue; test: Hsp90 competition assay, brain homogenate; assay type: binding, mouse; conditions: ratio of EC50 values
Procedure: as §4, §5

[12] = tested on: Raf-1 kinase; test: Pharmacodynamic marker in MDA-MB-468 xenograft tumors; assay type: in vivo, mice
Procedure: (§3) Mice xenografted with MDA-MB-468 human breast cancer tumors were treated by intraperitoneal injection with Compound 5 at a dosage levels of 25, 50, 75, 100 and 150 mg/kg. The concentration of Compound 5 in the tumor 24 hours after administration was determined. […] Compound 5 was further tested for its effects on the pharmacodynamic marker Raf-1 kinase.
Hsp90 stabilizes this kinase and maintains it in ready-to-be-activated conformation. Inhibition of Hsp90 leads to disruption of the complex and further ubiquitinylation and degradation of Raf-1 by the proteasome. Thus, Raf-1 degradation in tumors is a functional read-out of Hsp90 inhibition.

[13] = Tumor and plasma concentration in MDA-MB-468 xenografted mice; assay type: in vivo; conditions: 24 hours after intraperitoneal injection
Procedure: as §3

[14] = Blood brain barrier penetration
[15] = tested on: SKI-Chen; test: Growth over 96 h, resistant SCLC line; assay type: cell-based, human; conditions: line from a patient who failed every conventional therapy
Procedure: as §1

[16] = tested on: SCLC cells highly resistant to conventional chemotherapy; test: Growth inhibition and cell death, FIG. 8; assay type: cell-based; conditions: FIG. 8, growth over 96 h
Procedure: as §1

[17] = tested on: H69AR; test: Growth over 96 h, resistant SCLC line; assay type: cell-based; conditions: SCLC cell line resistant to adriamycin
Procedure: as §1

[18] = tested on: small cell lung tumors; test: Pharmacodynamics and anti-cancer activity in a model of small cell lung cancer; assay type: in vivo

Compound: C#CCCCn1c(Sc2cc3c(cc2I)OCO3)nc2c(N)ncnc21 [Example 10, 8-(6-Iodo-benzo[1,3]dioxol-5-ylsulfanyl)-9-(pent-4-ynyl)adenine]
- Heart/SKBr3 [1]: 370
- Selectivity between SKBr3 cells and MRC5 normal lung fibroblasts [2]: Selectivity was also observed

Compound: CC(C)NCCCn1c(Cc2cc3c(cc2I)OCO3)nc2c(N)nc(F)nc21 [Example 8, 2-Fluoro-8-(6-iodo-benzo[1,3]dioxol-5-ylmethyl)-9-(3-isopropylamino-propyl) adenine]
- Potency against cancer cells [3]: low nanomolar potency
- Anti-mitotic [4]: Yes

Compound: 9-(Pent-4-ynyl)-8-(2,4,5-trichloro-phenylsulfanyl)adenine [Example 2]
- IC50 [5]: 48400 ± 2500 nM
- IC50 ([5]; listed as Comp 2): 1800 ± 200 nM
- Inhibition of growth in SKBr3 cells [5]: inhibition of growth
- Heart/SKBr3 [1]: 590
- IC50 [6]: 58000 ± 1400 nM
- IC50 ([6]; listed as Comp 2): 1300 ± 400 nM
- Her2 degradation in SKBr3 cells [6]: induced Her2 degradation
- Lung/SKBr3 [7]: 2400
- Anti-mitotic [4]: No
- Anti-mitotic ([4]; listed as Comp 2): exhibited anti-mitotic activity and Yes

Compound: C#CCCCn1c(Cc2cc(OC)c(OC)cc2I)nc2c(N)nc(F)nc21 [Example 12, 2-Fluoro-8-(2-iodo-4,5-dimethoxy-benzyl)-9-(pent-4-ynyl)adenine]
- Anti-mitotic [4]: No

Compound: C#CCCCn1c(Sc2cc3c(cc2Br)OCO3)nc2c(N)ncnc21 [Example 1, 9-(Pent-4-ynyl)-8-(6-bromo-benzo[1,3]dioxol-5-ylsulfanyl)adenine]
- Inhibition of growth in SKBr3 cells [5]: inhibition of growth
- Selectivity for tumor cells as opposed to normal heart, brain or lung tissue [8]: very high selectivity
- RPTEC/SKBr3 [9]: 20.5
- Induction of apoptosis in SCLC cell lines [10]: induced apoptosis
- Brain/SKBr3 [11]: 2000
- Her2 degradation in SKBr3 cells [6]: induced Her2 degradation
- Anti-mitotic [4]: exhibited anti-mitotic activity and Yes

Compound: C#CCCCn1c(Cc2cc(OC)c(OC)cc2Cl)nc2c(N)nc(F)nc21 [Example 14, 2-Fluoro-8-(2-chloro-4,5-dimethoxy-benzyl)-9-(pent-4-ynyl)adenine]
- Anti-mitotic [4]: No

Compound: C#CCCCn1c(Cc2cc3c(cc2Br)OCO3)nc2c(N)nc(F)nc21 [Example 6, 2-Fluoro-8-(6-bromo-benzo[1,3]dioxol-5-ylmethyl)-9-(pent-4-ynyl)adenine]
- Anti-mitotic [4]: Yes

Compound: C#CCCCn1c(Cc2cc(OC)c(OC)cc2Br)nc2c(N)nc(F)nc21 [Example 13, 2-Fluoro-8-(2-bromo-4,5-dimethoxy-benzyl)-9-(pent-4-ynyl)adenine]
- Anti-mitotic [4]: No

Compound: COc1cc(Sc2nc3c(N)ncnc3n2CCOC(C)C)c(Cl)cc1Cl [Example 3, 9-(2-Isopropoxy-ethyl)-8-(2,4-dichloro-5-methoxy-benzenesulfanyl)adenine]
- Anti-mitotic [4]: No

Compound: CC(C)NCCCn1c(Sc2cc3c(cc2Br)OCO3)nc2c(N)ncnc21 [Example 5, 8-(6-Bromo-benzo[1,3]dioxol-5-ylsulfanyl)-9-(3-isopropylamino-propyl)adenine]
- Raf-1 protein levels in tumor ([12]; all dosage levels): substantial decrease in Raf-1 levels
- Expression of PD kinase ([12]; protein unaffected by Hsp90 inhibitors): no change in expression
- Concentration in plasma [13]: could not be detected
- Anti-mitotic [4]: Yes

Compound: C#CCCCn1c(Cc2cc3c(cc2Cl)OCO3)nc2c(N)nc(F)nc21 [Example 7, 2-Fluoro-8-(6-chloro-benzo[1,3]dioxol-5-ylmethyl)-9-(pent-4-ynyl)adenine]
- Anti-mitotic [4]: Yes

Compound: CC(C)NCCCn1c(Sc2cc3c(cc2I)OCO3)nc2c(N)ncnc21 [Example 9, 8-(6-Iodo-benzo[1,3]dioxol-5-ylsulfanyl)-9-(3-isopropylamino-propyl)adenine]
- IC50 ([5]; Homo sapiens, SK-BR-3): 90 ± 2 nM
- Potency against cancer cells [3]: low nanomolar potency
- Heart/SKBr3 [1]: 140
- Blood brain barrier penetration [14]: ability to cross the blood brain barrier
- Activity in SKI-Chen [15]: retains its activity
- IC50 ([6]; Homo sapiens, SK-BR-3): 100 ± 10 nM
- Lung/SKBr3 [7]: 48
- Effective concentration lower than PU24FC1 [16]: about 20 times
- Activity in H69AR [17]: retains its activity
- Anti-mitotic [4]: Yes
- Tumor growth inhibition ([18]; comparable to 17AAG): efficiently inhibited the growth of this tumor
- Apoptosis of the tumor (PARP cleavage) ([18]; in vivo): induces significant apoptosis of the tumor
- Duration of downregulation of Hsp90 client proteins in tumor ([18]; in vivo): more than 36 h
- Toxicity to the host ([18]; in vivo): without toxicity to the host
- Raf-1 and Akt in tumor ([18]; one administered dose): efficiently degraded or inactivated

Compound: Nc1ncnc2nc(Sc3cc(Cl)c(Cl)cc3Cl)[nH]c12 [Example 4, 8-(2,4,5-Trichloro-phenylsulfanyl)adenine]
- Anti-mitotic [4]: Yes

Compound: C#CCCCn1c(Cc2cc3c(cc2I)OCO3)nc2c(N)nc(F)nc21 [Example 11, 2-Fluoro-8-(6-iodo-benzo[1,3]dioxol-5-ylmethyl)-9-(pent-4-ynyl)adenine]
- Anti-mitotic [4]: Yes
